The values that follow come from patent US10543250B2, “Antimicrobial fusion peptides” (Los Angeles Biomedical Research Institute at Harbor-UCLA …, priority 2015, dated 2020).

Series [1] has as its system MDRAB clinical isolate HUMC-1. Nature of the series: Neutropenic murine model of MDRAB pneumonia. Format: in vivo, Acinetobacter baumannii. The settings on record: for survival: neutropenic mice, aerosolized MDRAB HUMC-1, treatment for 3d, survival monitored to day 21, peptide 12.5 mg/kg IV qd, imipenem 15 mg/kg IP bid. As for the experimental part: Neutropenic mice (cortisone acetate [250 mg/kg; subQ]+cyclophosphamide [200 mg/kg; IP] on study days-2, +3, and +8) were infected on day 0 (aerosolized; MDRAB clinical isolate HUMC-1; 5×10^8 CFU; lung Cx-positive). Treatment initiated 4 hr or 24 hr post-infection and continued for 3d. Groups:control (PBS); imipenem (15 mg/kg; IP; bid); γ-RP-1 (12.5 mg/kg; IV; qd); γ-RP-1 (12.5 mg/kg; IV; qd). Survival was then monitored to day 21. At end point or 21d, lungs and spleens were cultured. Outcomes were compared by non-parametric analysis. All studies adhered to institutional and AAALAC animal care policies.

The test system of series [2] is wide panel of Gram-negative human pathogens. Kind of series: Efficacy against panel of Gram-negative human pathogens at pH 5.5 and 7.5 (Example 4). The settings on record: compared to any other peptide tested. Format: cell-based. As for the experimental part:
The efficacy of RP-1 and γ-RP-1, along with a number of peptide variants and suitable control, was tested against a wide panel of Gram-negative human pathogens.

For series [3], the system named is P. berghei ANKA luciferase. Kind of series: In vivo antimalarial efficacy in infected mice. The settings on record: 12.5 mg/kg, IV treatment daily for 5 days, compared to chloroquine at the same concentration. From the text: FIGS. 15 and 16 show the in vivo antimalarial activity of γ-RP-1 on Luciferase-expressing P. berghei ANKA (FIG. 15: single dose; FIG. 16: double dose). CQ: chloroquine.

The test system of series [4] is wide panel of human pathogens. Kind of series: Efficacy of γ-RP-1 variants against panel of human pathogens at pH 5.5 and 7.5 (Example 6). The conditions noted are these: pH 5.5 and 7.5, FIG. 16A-B. Format: cell-based. As for the experimental part: The efficacy of RP-1 and γ-RP-1, along with a number of peptide variants and suitable control, was tested against a wide panel of human pathogens.
In another experiments, the following peptides were tested.

The test system of another series is 3D7 P. falciparum. Kind of series: In vitro antimalarial activity. Format: cell-based. The conditions noted are these: at 12.5 mg/ml after incubation for 96 hour.
A short description of another series: Peptide pI. The series is classed as physicochemical. As for the experimental part: Antimicrobial agents: RP-1 (pI/Mw: 10.82/2162.78 Da) is an 18-amino synthetic peptide derived from PF-4 family kinocidins. γ-RP-1 (pI/Mw: 10.64/4444.5 Da) is a 39-amino synthetic peptide comprising a CXCL4 kinocidin γ-core motif-RP-1 construct. Stock peptides dissolved in sterile ddH2O were diluted in suitable buffers. Antibiotics were purchased as purified powder and re-suspended in PBS per the manufacturer guidelines.

The subject of the next series is MDRAB. Nature of the series: Biomatrix assay: efficacy in human blood, plasma or serum. Format: cell-based, Acinetobacter baumannii. The settings on record: human blood ex vivo. As for the experimental part:
Efficacies of RP-1 and γ-RP-1 in human blood, plasma, or serum were assessed. Peptide was added to biomatrix simultaneously with MDRAB (final inoculum 10^5 CFU/ml; peptide range […]; volume 100 μl). Controls were performed using Mueller Hinton broth (MHB; CLSI). Following incubation (constant agitation; 2 h, 37° C.), survival was quantified by culture (n=3) upon blood agar and defined as CFU/ml. Independent minimum, n=2.

Entries after “also recorded” stand apart in the source; their conditions may differ.

Take `C[C@@H](O)[C@H]1C(=O)N2C(C(=O)O)=C(SCCN=CN)C[C@H]12` [imipenem, reference compound]: in series [1], the survival turned out to be 16%.
For the molecule “γ-RP-1 (CPTAQLIATLKNGRKICLDLQALYKKFKKKLLKSLKRLG)”, the “efficacy against individual organisms and across the broader panel” value in series [2] is on record as “overall best efficacy”. Besides, the “antimalarial activity in vivo” value in series [3] was “moderate antimalarial activity”. Besides, the “Total MDRAB burden (CFU) in lungs and spleens, reduction” value in series [1] (as compared to control or imipenem treatments alone) was over 2 log CFU. Moreover, the “efficacy vs. MDRAB in a murine model of neutropenic pneumonia” value in series [1] (in vivo) was “significant efficacy”. The survival in series [1] was found to be 72%. Further, in series [4], the “efficacy compared with RP-1 across bacterial species” value is listed as “higher efficacy than RP-1”. The “in vitro antimalarial effects, dose-response curve” value with 3D7 P. falciparum is listed as “excellent IC50 curve”. This molecule registered a pI in the series “Peptide pI” of 10.64. For the same molecule, in the series on MDRAB, the “efficacy in human blood” value is “significant efficacy; also recorded: greater efficacy”.
